Data reported in ChEMBL document CHEMBL4052622, “Geldanamycin-inspired compounds induce direct trans-differentiation of human mesenchymal stem cells to neurons” (Eur J Med Chem, 2017).
Calls of active or inactive are those of the source. The rule behind the calls is not given here.

Columns and labels:
Format in all cases: functional, cell-based
MSC [1] = assay: Induction of differentiation of human umbilical cord tissue-derived MSC to neurons assessed as upregulation of nestin levels at 10 uM after 11 days by End PCR analysis
MSC [2] = assay: Induction of differentiation of human umbilical cord tissue-derived MSC to neurons assessed as upregulation of agrin levels at 10 uM after 11 days by End PCR analysis
MSC [3] = assay: Induction of differentiation of human umbilical cord tissue-derived MSC to neurons assessed as upregulation of RTN4 levels at 10 uM after 11 days by End PCR analysis
MSC [4] = assay: Induction of differentiation of human umbilical cord tissue-derived MSC to neurons assessed as phenotypic changes in cell at 10 uM after 11 days by End PCR analysis

Compound	Activity (MSC [1])	Activity (MSC [2])	Activity (MSC [3])	Activity (MSC [4])
CO[C@H]1[C@@H](OC)C[C@H](C)Cn2cc(nn2)COC(=O)/C(C)=C/CC[C@H](OC)[C@H](CO[Si](C)(C)C(C)(C)C)OC(=O)[C@@H]1C	Active	Active	Active	
CO[C@@H]([C@H](C[C@H](C)CN=[N+]=[N-])OC)[C@@H](C)C(=O)N1C(=O)OC[C@H]1Cc1ccccc1	inactive	Active	Active	
CO[C@H]1[C@@H](OC)C[C@H](C)Cn2cc(nn2)COC(=O)/C(C)=C/C=C\[C@H](OC)[C@H](CO[Si](C)(C)C(C)(C)C)OC(=O)[C@@H]1C	Active	Active	Active	
CO[C@@H](C[C@H](C)CO)[C@H](O)[C@@H](C)C(=O)N1C(=O)OC[C@H]1Cc1ccccc1	Active	Active	Active	Active
CO[C@H]1[C@@H](OC)C[C@H](C)Cn2cc(nn2)COC(=O)/C(C)=C/CC[C@H](OC)[C@H](CO)OC(=O)[C@@H]1C	Active	Active	Active	Active
